Experimental data from patent US20230041743A1, “1,8-NAPHTHYRIDIN-2-ONE COMPOUNDS FOR THE TREATMENT OF AUTOIMMUNE DISEASE” (Hoffmann-La Roche Inc., priority 2019, published 2023).

Assays:
human TLR7 = target: T1, human TLR7 (Homo sapiens, UniProt Q9NYK1); experiment: HEK293-Blue-hTLR-7 cells assay (SEAP reporter, R848 stimulation); assay type: cell-based; conditions: HEK293-Blue-hTLR7 cells, R848 ligand, 20 hrs incubation; read-out: HEK/hTLR7 IC50
T1 construct: host or cells: HEK293 (HEK-Blue hTLR7)
T1 sequence (Q9NYK1 27-1049): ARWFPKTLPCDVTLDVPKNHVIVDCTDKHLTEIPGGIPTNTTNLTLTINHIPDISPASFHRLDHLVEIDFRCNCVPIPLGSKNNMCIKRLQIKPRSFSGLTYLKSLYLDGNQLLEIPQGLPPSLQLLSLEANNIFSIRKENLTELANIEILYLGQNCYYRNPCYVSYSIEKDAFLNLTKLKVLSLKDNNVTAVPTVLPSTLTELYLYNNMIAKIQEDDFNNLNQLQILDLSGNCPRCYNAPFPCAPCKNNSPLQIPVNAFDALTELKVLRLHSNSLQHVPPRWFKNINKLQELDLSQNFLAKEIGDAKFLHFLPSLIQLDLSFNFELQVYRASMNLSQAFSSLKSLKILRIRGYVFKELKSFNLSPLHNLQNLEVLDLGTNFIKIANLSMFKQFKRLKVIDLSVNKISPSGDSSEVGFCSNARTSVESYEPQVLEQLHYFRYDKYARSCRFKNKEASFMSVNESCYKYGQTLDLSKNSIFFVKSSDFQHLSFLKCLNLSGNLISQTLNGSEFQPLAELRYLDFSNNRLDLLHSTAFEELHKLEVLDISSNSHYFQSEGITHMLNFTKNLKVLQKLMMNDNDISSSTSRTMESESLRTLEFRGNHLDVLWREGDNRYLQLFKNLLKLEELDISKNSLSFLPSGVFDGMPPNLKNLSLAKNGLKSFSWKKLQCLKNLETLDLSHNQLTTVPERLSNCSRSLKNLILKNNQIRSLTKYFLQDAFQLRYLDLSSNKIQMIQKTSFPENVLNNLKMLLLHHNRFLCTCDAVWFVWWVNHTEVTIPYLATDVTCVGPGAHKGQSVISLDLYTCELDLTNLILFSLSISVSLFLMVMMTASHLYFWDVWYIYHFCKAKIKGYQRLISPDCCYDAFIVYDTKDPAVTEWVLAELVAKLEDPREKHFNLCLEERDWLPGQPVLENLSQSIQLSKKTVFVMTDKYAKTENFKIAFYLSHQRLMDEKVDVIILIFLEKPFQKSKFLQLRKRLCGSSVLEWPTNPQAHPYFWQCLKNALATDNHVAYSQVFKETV
Description: HEK293-Blue-hTLR-7 Cells Assay:
A stable HEK293-Blue-hTLR-7 cell line was purchased from InvivoGen (Cat. #: hkb-htlr7, San Diego, Calif., USA). These cells were originally designed for studying the stimulation of human TLR7 by monitoring the activation of NF-κB. A SEAP (secreted embryonic alkaline phosphatase) reporter gene was placed under the control of the IFN-β minimal promoter fused to five NF-κB and AP-1-binding sites. The SEAP was induced by activating NF-κB and AP-1 via stimulating HEK-Blue hTLR7 cells with TLR7 ligands. Therefore the reporter expression was declined by TLR7 antagonist under the stimulation of a ligand, such as R848 (Resiquimod), for incubation of 20 hrs. The cell culture supernatant SEAP reporter activity was determined using QUANTI-Blue™ kit (Cat. #: rep-qb1, Invivogen, San Diego, Ca, USA) at a wavelength of 640 nm, a detection medium that turns purple or blue in the presence of alkaline phosphatase.
HEK293-Blue-hTLR7 cells were incubated at a density of 250,000-450,000 cells/mL in a volume of 170 μL in a 96-well plate in Dulbecco's Modified Eagle's medium (DMEM) containing 4.5 g/L glucose, 50 U/mL penicillin, […], […], 2 mM L-glutamine, 10% (v/v) heat-inactivated fetal bovine serum with addition of 20 μL test compound in a serial dilution in the presence of final DMSO at 1% and 10 μL of 20 uM R848 in above DMEM, perform incubation under 37° C. in a CO2 incubator for 20 hrs. Then 20 μL of the supernatant from each well was incubated with 180 μL Quanti-blue substrate solution at 37° C. for 2 hrs and the absorbance was read at 620˜655 nm using a spectrophotometer. The signaling pathway that TLR7 activation leads to downstream NF-κB activation has been widely accepted, and therefore similar reporter assay was modified for evaluating TLR7 antagonist.

[1] = Human microsomal stability assay; assay type: in vitro ADME; conditions: human liver microsomes, 1 μM test compound, 0.5 mg/mL protein, 37° C.; low <7.0, medium 7.0-16.2, high 16.2-23.2
Procedure: Human Microsomal Stability Assay
Human liver microsomes (Cat. NO.: 452117, Corning, USA) were preincubated with test compound for 10 minutes at 37° C. in 100 mM potassium phosphate buffer, pH 7.4. The reactions were initiated by adding NADPH regenerating system. The final incubation mixtures contained 1 μM test compound, 0.5 mg/mL liver microsomal protein, 1 mM MgCl2, 1 mM NADP, 1 unit/mL isocitric dehydrogenase and 6 mM isocitric acid in 100 mM potassium phosphate buffer, pH 7.4. After incubation times of 0, 3, 6, 9, 15 and 30 minutes at 37° C., 300 μL of cold ACN (including internal standard) was added to 100 μL incubation mixture to terminate the reaction. Following precipitation and centrifugation, 100 uL supernatant will be taken out and added 300 uL water.
The amount of compound remaining in the samples was determined by LC-MS/MS. Controls of no NADPH regenerating system at zero and 30 minutes were also prepared and analyzed. The results were categorized as: low (<7.0 mL/min/kg), medium (7.0-16.2 mL/min/kg) and high (16.2-23.2 mL/min/kg).

Row | IC50 (human TLR7) [nM] | CL (h) [1] [mL/min/kg] | SMILES
1 | 38.1 | 7.8 | CO[C@@H]1CN(c2ccc3c(c2)CN2[C@H](C)CN(c4cc(=O)n(C)c5ncccc45)C[C@H]32)C[C@H]1N [Example 5, 4-[(4R,10bS)-8-[(3R,4R)-3-amino-4-methoxy-pyrrolidin-1-yl]-4-methyl-3,4,6,10b-tetrahydro-1H-pyrazino[2,1-a]isoindol-2-yl]-1-methyl-1,8-naphthyridin-2-one]
2 | 6.7 | 6.2 | C[C@@H]1CN(c2cc(=O)n(C)c3ncccc23)C[C@@H]2c3ccc(C4CCCNC4)cc3CN12 (stereo partly drawn) [Example 25, 4-[(4R,10bS)-4-methyl-8-(3-piperidyl)-3,4,6,10b-tetrahydro-1H-pyrazino[2,1-a]isoindol-2-yl]-1-methyl-1,8-naphthyridin-2-one]
3 | 11.5 | 9.5 | C[C@@H]1CN(c2cc(=O)n(C)c3ncccc23)C[C@@H]2c3ccc(N4CC5(CN(C)C5)C4)cc3CN12 [Example 2, 4-[(4R,10bS)-4-methyl-8-(6-methyl-2,6-diazaspiro[3.3]heptan-2-yl)-3,4,6,10b-tetrahydro-1H-pyrazino[2,1-a]isoindol-2-yl]-1-methyl-1,8-naphthyridin-2-one]
4 | 85.2 | 6.4 | CCn1c(=O)cc(N2C[C@@H](C)N3Cc4cc(N5C[C@@H](N)[C@H](OC)C5)ccc4[C@H]3C2)c2cccnc21 [Example 29, 4-[(4R,10bS)-8-[(3R,4R)-3-amino-4-methoxy-pyrrolidin-1-yl]-4-methyl-3,4,6,10b-tetrahydro-1H-pyrazino[2,1-a]isoindol-2-yl]-1-ethyl-1,8-naphthyridin-2-one]
5 | 11.9 | 6.2 | C[C@@H]1CN(c2cc(=O)n(C)c3ncccc23)C[C@@H]2c3ccc(N4CCNCC4)cc3CN12 [Example 12, 4-[(4R,10bS)-4-methyl-8-piperazin-1-yl-3,4,6,10b-tetrahydro-1H-pyrazino[2,1-a]isoindol-2-yl]-1-methyl-1,8-naphthyridin-2-one]
6 | 62.6 | 8.8 | CO[C@H]1CCN(c2ccc3c(c2)CN2[C@H](C)CN(c4cc(=O)n(C)c5ncccc45)C[C@H]32)C[C@@H]1N [Example 9, 4-[(4R,10bS)-8-[(3S,4S)-3-amino-4-methoxy-1-piperidyl]-4-methyl-3,4,6,10b-tetrahydro-1H-pyrazino[2,1-a]isoindol-2-yl]-1-methyl-1,8-naphthyridin-2-one]
7 | 30.5 | 6.9 | C[C@@H]1CN(c2cc(=O)n(C)c3ncccc23)C[C@@H]2c3ccc(N4CCOC5(CNC5)C4)cc3CN12 [Example 11, 4-[(4R,10bS)-4-methyl-8-(5-oxa-2,8-diazaspiro[3.5]nonan-8-yl)-3,4,6,10b-tetrahydro-1H-pyrazino[2,1-a]isoindol-2-yl]-1-methyl-1,8-naphthyridin-2-one]
8 | 31 | 6.2 | C[C@@H]1CN(c2cc(=O)n(C)c3ncccc23)C[C@@H]2c3ccc(OCCN(C)C)cc3CN12 [Example 23, 4-[(4R,10bS)-8-[2-(dimethylamino)ethoxy]-4-methyl-3,4,6,10b-tetrahydro-1H-pyrazino[2,1-a]isoindol-2-yl]-1-methyl-1,8-naphthyridin-2-one]
9 | 12 | 8.0 | C[C@@H]1CN(c2cc(=O)n(C)c3ncccc23)C[C@@H]2c3ccc(N4CCC[C@](C)(N)C4)cc3CN12 [Example 15, 4-[(4R,10bS)-8-[(3S)-3-amino-3-methyl-1-piperidyl]-4-methyl-3,4,6,10b-tetrahydro-1H-pyrazino[2,1-a]isoindol-2-yl]-1-methyl-1,8-naphthyridin-2-one]
10 | 52.1 | 6.2 | C[C@@H]1CN(c2cc(=O)n(C)c3ncccc23)C[C@@H]2c3ccc(N4C[C@H]5C[C@@H]4CN5)cc3CN12 [Example 20, 4-[(4R,10bS)-8-[(1R,4R)-2,5-diazabicyclo[2.2.1]heptan-2-yl]-4-methyl-3,4,6,10b-tetrahydro-1H-pyrazino[2,1-a]isoindol-2-yl]-1-methyl-1,8-naphthyridin-2-one]
11 | 8.3 | 9.8 | C[C@@H]1CN(c2cc(=O)n(C)c3ncccc23)C[C@@H]2c3ccc(C4CCNC4)cc3CN12 (stereo partly drawn) [Example 26, 4-[(4R,10bS)-4-methyl-8-pyrrolidin-3-yl-3,4,6,10b-tetrahydro-1H-pyrazino[2,1-a]isoindol-2-yl]-1-methyl-1,8-naphthyridin-2-one]
12 | 13 | 7.9 | C[C@@H]1CN(c2cc(=O)n(C)c3ncccc23)C[C@@H]2c3ccc(N4CCN[C@@H](C)C4)cc3CN12 [Example 13, 4-[(4R,10bS)-4-methyl-8-[(3S)-3-methylpiperazin-1-yl]-3,4,6,10b-tetrahydro-1H-pyrazino[2,1-a]isoindol-2-yl]-1-methyl-1,8-naphthyridin-2-one]
13 | 9.8 | 6.2 | C[C@@H]1CN(c2cc(=O)n(C)c3ncccc23)C[C@@H]2c3ccc(N4CCC(C)(N)CC4)cc3CN12 [Example 18, 4-[(4R,10bS)-8-(4-amino-4-methyl-1-piperidyl)-4-methyl-3,4,6,10b-tetrahydro-1H-pyrazino[2,1-a]isoindol-2-yl]-1-methyl-1,8-naphthyridin-2-one]
14 | 3.7 | 6.2 | C[C@@H]1CN(c2cc(=O)n(C)c3ncccc23)C[C@@H]2c3ccc(C4CCNCC4)cc3CN12 [Example 24, 4-[(4R,10bS)-4-methyl-8-(4-piperidyl)-3,4,6,10b-tetrahydro-1H-pyrazino[2,1-a]isoindol-2-yl]-1-methyl-1,8-naphthyridin-2-one]

Row | SMILES | IC50 (human TLR7) [nM] | CL (h) [1] [mL/min/kg]
15 | C[C@@H]1CN(c2cc(=O)n(C)c3ncccc23)C[C@@H]2c3ccc([C@H]4C[C@H]5COC[C@@H](C4)N5)cc3CN12 [Example 28A, 4-[(4R,10bS)-4-methyl-8-(endo-3-oxa-9-azabicyclo[3.3.1]nonan-7-yl)-3,4,6,10b-tetrahydro-1H-pyrazino[2,1-a]isoindol-2-yl]-1-methyl-1,8-naphthyridin-2-one] | 7.2 | 9.2
